Measurements published in ChEMBL document CHEMBL6074689 (Eur J Med Chem, 2025).
Active and inactive are the calls of the source. The calls are words filed in the database; no cut-off is given here.

Key:
[1] = target: Cholinesterase (Equus caballus) (UniProt P81908); assay: Reversible binding affinity to equine serum BChE using acetylthiocholine iodide as substrate assessed as equilibrium binding constant preincubated for 40 mins by DTNB reagent based Ellman's method
Acetylcholinesterase [2] = target: T1, Acetylcholinesterase (Homo sapiens, UniProt P22303); assay: Reversible binding affinity to human AChE using acetylthiocholine iodide as substrate assessed as binding constant preincubated for 40 mins by DTNB reagent based Ellman's method
T1 sequence (P22303 whole entry): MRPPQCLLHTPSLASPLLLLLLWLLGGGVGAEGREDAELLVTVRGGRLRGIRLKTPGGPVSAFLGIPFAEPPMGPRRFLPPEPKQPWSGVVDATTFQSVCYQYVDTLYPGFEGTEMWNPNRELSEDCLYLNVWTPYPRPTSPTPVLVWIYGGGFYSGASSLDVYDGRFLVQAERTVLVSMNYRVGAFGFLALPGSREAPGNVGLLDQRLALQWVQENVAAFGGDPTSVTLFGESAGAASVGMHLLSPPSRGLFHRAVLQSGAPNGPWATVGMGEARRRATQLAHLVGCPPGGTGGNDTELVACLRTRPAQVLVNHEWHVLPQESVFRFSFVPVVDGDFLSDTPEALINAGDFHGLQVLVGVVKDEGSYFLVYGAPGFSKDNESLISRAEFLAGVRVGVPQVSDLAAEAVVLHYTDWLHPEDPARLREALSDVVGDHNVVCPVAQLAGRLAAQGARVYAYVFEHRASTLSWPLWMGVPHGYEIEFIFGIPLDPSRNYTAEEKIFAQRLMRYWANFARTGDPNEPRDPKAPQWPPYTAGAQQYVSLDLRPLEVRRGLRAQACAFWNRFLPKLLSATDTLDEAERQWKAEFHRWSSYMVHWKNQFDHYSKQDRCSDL

[3] = target: Cholinesterase (Equus caballus) (UniProt P81908); assay: Reversible binding affinity to equine serum BChE using acetylthiocholine iodide as substrate assessed as binding constant preincubated for 40 mins by DTNB reagent based Ellman's method
Acetylcholinesterase [4] = target: T1, Acetylcholinesterase; assay: Displacement of propidium iodide from human AChE PAS assessed as reduction in fluorescence intensity at 0.1 uM incubated for 6 hrs by fluorescence based analysis relative to control; set-up: scale not given: the % may be the effect or the level left
Acetylcholinesterase [5] = target: T1, Acetylcholinesterase; assay: Displacement of propidium iodide from human AChE PAS assessed as reduction in fluorescence intensity at 0.01 uM incubated for 6 hrs by fluorescence based analysis relative to control; set-up: scale not given: the % may be the effect or the level left
PC-12 [6] = assay: Induction of apoptosis in rat PC-12 cells assessed as viable cells at 2.5 uM incubated for 24 hrs by Annexin V/PI staining based flow cytometry analysis (reference value: 82.8%); type: functional; details: read-out: Activity
PC-12 [7] = assay: Induction of apoptosis in rat PC-12 cells assessed as viable cells at 5 uM incubated for 24 hrs by Annexin V/PI staining based flow cytometry analysis (reference value: 82.8%); type: functional; details: read-out: Activity
PC-12 [8] = assay: Induction of apoptosis in rat PC-12 cells assessed as viable cells at 20 uM incubated for 24 hrs by Annexin V/PI staining based flow cytometry analysis (reference value: 82.8%); type: functional; details: read-out: Activity
[9] = Metal chelating activity assessed as compound-Fe2+ complex formation by measuring increase in absorption intensity at 300 uM in presence of by UV-vis spectrometry
[10] = target: Amyloid-beta precursor protein (Homo sapiens) (UniProt P05067); assay: Inhibition of amyloid beta (1 to 42) (unknown origin) self induced aggregation at 1.521 uM incubated for 72 hrs by ThT fluorescence based assay
Amyloid-beta precursor protein (Homo sapiens), sequence (P05067 whole entry): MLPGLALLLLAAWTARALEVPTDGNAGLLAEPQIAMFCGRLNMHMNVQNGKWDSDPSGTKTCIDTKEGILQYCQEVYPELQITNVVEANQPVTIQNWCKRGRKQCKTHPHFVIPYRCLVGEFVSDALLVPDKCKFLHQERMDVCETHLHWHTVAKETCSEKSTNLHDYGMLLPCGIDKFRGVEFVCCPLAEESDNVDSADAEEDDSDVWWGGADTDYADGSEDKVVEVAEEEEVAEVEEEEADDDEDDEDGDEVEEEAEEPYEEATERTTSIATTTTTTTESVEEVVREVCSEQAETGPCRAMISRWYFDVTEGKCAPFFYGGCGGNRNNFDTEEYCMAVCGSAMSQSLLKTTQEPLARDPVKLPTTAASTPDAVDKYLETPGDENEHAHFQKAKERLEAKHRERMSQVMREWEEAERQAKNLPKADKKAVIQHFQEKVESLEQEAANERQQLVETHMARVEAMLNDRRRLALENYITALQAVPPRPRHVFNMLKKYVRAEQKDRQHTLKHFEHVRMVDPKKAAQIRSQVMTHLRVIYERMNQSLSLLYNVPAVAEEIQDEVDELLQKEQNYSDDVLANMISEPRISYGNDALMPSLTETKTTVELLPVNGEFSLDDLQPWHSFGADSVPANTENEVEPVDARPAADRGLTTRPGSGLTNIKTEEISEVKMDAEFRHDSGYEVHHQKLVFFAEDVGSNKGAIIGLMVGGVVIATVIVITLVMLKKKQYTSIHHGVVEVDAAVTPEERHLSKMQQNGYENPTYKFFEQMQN

[11] = Toxicity in Drosophila melanogaster Oregon R-positive assessed as reduction in eclosed flies at 20 uM measured for 15 days relative to control; set-up: scale not given: the % may be the effect or the level left; details: 360 h, time 15 day
[12] = Toxicity in Drosophila melanogaster Oregon R-positive assessed as reduction in eclosed flies at 10 uM measured for 15 days relative to control; set-up: scale not given: the % may be the effect or the level left; details: 360 h, time 15 day
Drosophila melanogaster [13] = assay: Anti-alzheimer activity in ey-GAL4 driven UAS-amyloid beta (1 to 42) induced Drosophila melanogaster Oregon R-positive assessed as rescued eye phenotype at 10 to 20 uM by Stereo zoom microscopic imaging analysis relative to control; type: functional; details: dose 10-20 µM
Drosophila melanogaster [14] = assay: Anti-alzheimer activity in ey-GAL4 driven UAS-amyloid beta (1 to 42) induced Drosophila melanogaster Oregon R-positive assessed as severe eye phenotype at 40 uM by Stereo zoom microscopic imaging analysis relative to control; type: functional
Drosophila melanogaster [15] = assay: Anti-alzheimer activity in ey-GAL4 driven UAS-amyloid beta (1 to 42) induced Drosophila melanogaster Oregon R-positive assessed as rescued eye phenotype at 50 uM by Stereo zoom microscopic imaging analysis relative to control; type: functional
Drosophila melanogaster [16] = assay: Anti-alzheimer activity in ey-GAL4 driven UAS-amyloid beta (1 to 42) induced Drosophila melanogaster Oregon R-positive assessed as severe eye phenotype at 100 uM by Stereo zoom microscopic imaging analysis relative to control; type: functional
[17] = Acute toxicity in Swiss albino mouse assessed as animal survival at 175 mg/kg, po administered for 14 days; type: organism-based; details: in vivo, 336 h, time 14 day
[18] = Acute toxicity in Swiss albino mouse assessed as abnormal behavior at 175 mg/kg, po administered for 14 days; type: organism-based; details: in vivo, 336 h, time 14 day
[19] = Acute toxicity in Swiss albino mouse assessed as convulsion at 175 mg/kg, po administered for 14 days; type: organism-based; details: in vivo, 336 h, time 14 day
[20] = Acute toxicity in Swiss albino mouse assessed as tremor at 175 mg/kg, po administered for 14 days; type: organism-based; details: in vivo, 336 h, time 14 day
Mus musculus [21] = assay: Antialzheimer activity in scopolamine-induced Swiss albino mouse model assessed as improvement in memory retention by measuring time spent in platform quadrant at 0.3 to 0.5 mg/kg, po preincubated with compound for 30 mins followed by scopolamine induction and measured after 5 days by Morris water maze test; type: functional, organism-based; details: dose 0.3-0.5 mg/kg, time 7230.0 min
Mus musculus [22] = assay: Antialzheimer activity in scopolamine-induced Swiss albino mouse model assessed as reduction in AChE level at 0.3 to 0.5 mg/kg, po preincubated with compound for 30 mins followed by scopolamine induction and measured after 30 mins; type: functional, organism-based; details: dose 0.3-0.5 mg/kg, time 1.0 hrs
Mus musculus [23] = assay: Neuroprotective activity against scopolamine-induced Swiss albino mouse model assessed as increase in C-FOS mRNA level at 0.3 to 0.5 mg/kg, po measured after 6 days by RT-PCR analysis; type: functional, organism-based; details: dose 0.3-0.5 mg/kg, time 6.0 day
Mus musculus [24] = assay: Neuroprotective activity against scopolamine-induced Swiss albino mouse model assessed as effect on PSD95 mRNA level at 0.3 to 0.5 mg/kg, po measured after 6 days by RT-PCR analysis; type: functional, organism-based; details: dose 0.3-0.5 mg/kg, time 6.0 day
Mus musculus [25] = assay: Neuroprotective activity against scopolamine-induced Swiss albino mouse model assessed as upregulation of PKA mRNA level at 0.3 to 0.5 mg/kg, po measured after 6 days by RT-PCR analysis; type: functional, organism-based; details: dose 0.3-0.5 mg/kg, time 6.0 day

Cholinesterase (Equus caballus), sequence (P81908 whole entry): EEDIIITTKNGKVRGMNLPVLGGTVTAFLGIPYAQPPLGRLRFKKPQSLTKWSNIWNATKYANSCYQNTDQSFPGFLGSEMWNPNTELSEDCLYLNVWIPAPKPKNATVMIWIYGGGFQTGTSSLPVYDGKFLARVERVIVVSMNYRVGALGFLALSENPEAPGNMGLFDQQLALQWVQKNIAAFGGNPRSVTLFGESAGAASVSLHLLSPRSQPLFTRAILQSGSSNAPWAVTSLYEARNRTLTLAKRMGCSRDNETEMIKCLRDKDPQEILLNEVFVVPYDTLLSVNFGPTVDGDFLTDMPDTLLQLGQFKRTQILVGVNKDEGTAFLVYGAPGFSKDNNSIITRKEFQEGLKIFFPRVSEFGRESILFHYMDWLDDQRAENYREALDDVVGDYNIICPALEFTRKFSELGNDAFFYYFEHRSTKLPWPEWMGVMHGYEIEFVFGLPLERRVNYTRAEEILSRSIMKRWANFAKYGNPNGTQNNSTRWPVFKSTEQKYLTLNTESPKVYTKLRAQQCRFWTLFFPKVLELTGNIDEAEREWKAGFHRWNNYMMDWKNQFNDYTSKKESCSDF

With `C[C@@H](c1cccc(OC(=O)NCCc2c[nH]c3ccc(Cl)cc23)c1)N(C)C` the Kb [1] was 0.13 nM, the K (Acetylcholinesterase [2]) was 0.041 min⁻¹ and the K [3] was 0.035 min⁻¹. The Activity (Acetylcholinesterase [4]) was 3.56%, the Activity (Acetylcholinesterase [5]) was 1.37% and the viability at 2.5 µM (PC-12 [6]) was 72.2%. The viability at 5 µM (PC-12 [7]) was 81.1%, the viability at 20 µM (PC-12 [8]) was 81.5% and the Activity [9] was “inactive”. The inhibition [10] was 100%, the Activity [11] was 103% and the Activity [12] was 108%. For the same compound, the Activity (Drosophila melanogaster [13]) was 36%, the Activity (Drosophila melanogaster [14]) was 16% and the Activity (Drosophila melanogaster [15]) was 23%. For the same compound, the Activity (Drosophila melanogaster [16]) was 26%, the Activity [17] was “Non-toxic” and the Activity [18] was “Non-toxic”. For the same compound, the Activity [19] was “Non-toxic”, the Activity [20] was “Non-toxic” and the Activity (Mus musculus [21]) was “Active”. The Activity (Mus musculus [22]) was “Active”, the Activity (Mus musculus [23]) was “Active” and the Activity (Mus musculus [24]) was “Active”. The Activity (Mus musculus [25]) was “Active”.
